Data from US20240368104A1, “Novel Dialkoxynaphtho[2,3-C]Furan-1(3H)-One Derivatives and Pharmaceutical Composition For Preventing or Treating Respiratory Disease or SARS-COV-2 Infection Disease, Comprising Same” (priority 2021, published 2024).
Where two headings read alike, the source gives them in different places.

Experiments:
SARS-COV-2 = experiment: microbe, parasite or virus in culture; type: cell-based; parameters: SI (Selectivity Index, CC50/IC50): unit not given here; details: for SI (Selectivity Index, CC50/IC50): SARS-COV-2, values >50 assumed to be 50; for IC50: read-out: SARS-COV-2 inhibition (IC50)
in vitro = details: African green monkey
[1] = Severe acute respiratory syndrome coronavirus 2, Vero cells, 24 hours infection
[2] = Severe acute respiratory syndrome coronavirus 2, Vero, 24 h

SMILES | SI (Selectivity Index, CC50/IC50) (SARS-COV-2) | IC50 (SARS-COV-2; [1]) [µM] | CC50 (in vitro) [µM] | IC50 (SARS-COV-2; [2]) [µM]
COc1cc2cc3c(c(-c4cc(C)nc5c(C(F)(F)F)cccc45)c2cc1OC)C(=O)OC3 [Example 136, 6,7-dimethoxy-9-(2-methyl-8-(trifluoromethyl)quinolin-4-yl)naphtho[2,3-c]furan-1(3H)-one] | 1.0 | > 50 | > 50 | 
CCC(C)N(C)c1ncc(-c2c3c(cc4cc(OC)c(OC)cc24)COC3=O)cn1.Cl (stereo not drawn) [Example 100, 9-(2-(sec-butyl(methyl)amino)pyrimidin-5-yl)-6,7-dimethoxynaphtho[2,3-c]furan-1(3H)-one hydrochloride] | 96.21 |  | > 50 | 0.52
COCCN(CCOC)c1ccc(-c2c3c(cc4cc(OC)c(OC)cc24)COC3=O)cn1 [Example 174, 9-(6-(bis(2-methoxyethyl)amino)pyridin-3-yl)-6,7-dimethoxynaphtho[2,3-c]furan-1(3H)-one] | 2.62 | 19.1 | > 50 | 
COc1cc2cc3c(c(-c4ccc(N(C)C(=O)N5CCOCC5)nc4)c2cc1OC)C(=O)OC3 [Example 235, N-(5-(6,7-dimethoxy-3-oxo-1,3-dihydronaphtho[2,3-c]furan-4-yl)pyridin-2-yl)-N-methylmorpholin-4-carboxamide] | 1.00 | > 50 | > 50 | 
COc1cc2cc3c(c(-c4ccc(N(C)c5nnc(C)o5)nc4)c2cc1OC)C(=O)OC3 [Example 231, 6,7-dimethoxy-9-(6-(methyl(5-methyl-1,3,4-oxadiazol-2-yl)amino)pyridin-3-yl)naphtho[2,3-c]furan-1(3H)-one] | 1.00 | > 50 | > 50 | 
COc1cc2cc3c(c(-c4ccc5nc(C)cc(O)c5c4)c2cc1OC)C(=O)OC3 [Example 147, 9-(4-hydroxy-2-methylquinolin-6-yl)-6,7-dimethoxynaphtho[2,3-c]furan-1(3H)-one] | 1.0 | > 50 | > 50 | 
COc1cc2cc3c(c(-c4cccc(N5CCOCC5)c4)c2cc1OC)C(=O)OC3 [Example 244, 6,7-dimethoxy-9-(3-morpholinophenyl)naphtho[2,3-c]furan-1(3H)-one] | 1.00 | > 50 | > 50 | 
COc1cc2cc3c(c(-c4ccc(N(C)[C@H]5CCc6c(cccc6OC)C5)nc4)c2cc1OC)C(=O)OC3 [Example 164, (S)-6,7-dimethoxy-9-(6-((5-methoxy-1,2,3,4-tetrahydronaphthalen-2-yl)(methyl)amino)pyridin-3-yl)naphtho[2,3-c]furan-1(3H)-one] | 39.02 | 1.28 | > 50 | 
COc1cc2cc3c(c(-c4ccnc5ccc(F)cc45)c2cc1OC)C(=O)OC3 [Example 148, 9-(6-fluoroquinolin-4-yl)-6,7-dimethoxynaphtho[2,3-c]furan-1(3H)-one] | 1.0 | > 50 | > 50 | 
CCCCN(CC)c1ncc(-c2c3c(cc4cc(OC)c(OC)cc24)COC3=O)cn1 [Example 66, 9-(2-(butyl(ethyl)amino)pyrimidin-5-yl)-6,7-dimethoxynaphtho[2,3-c]furan-1(3H)-one] | 19.03 | 2.63 | > 50 | 
COc1cc2cc3c(c(-c4cnc(N(C)c5ccc(C)c(C)c5)nc4)c2cc1OC)C(=O)OC3 [Example 109, 9-(2-((3,4-dimethylphenyl)(methyl)amino)pyrimidin-5-yl)-6,7-dimethoxynaphtho[2,3-c]furan-1(3H)-one] | 18.73 | 2.67 | > 50 | 
COc1cc2cc3c(c(-c4cnc(N5CCC[C@@H]5CO)nc4)c2cc1OC)C(=O)OC3.Cl [Example 82, (R)-9-(2-(2-(hydroxymethyl)pyrrolidin-1-yl)pyrimidin-5-yl)-6,7-dimethoxynaphtho[2,3-c]furan-1(3H)-one hydrochloride] | 3.93 |  | > 50 | 12.7
COc1cc2cc3c(c(-c4ccc(N(C)c5ncn(C)n5)nc4)c2cc1OC)C(=O)OC3 [Example 206, 6,7-dimethoxy-9-(6-(methyl(1-methyl-1H-1,2,4-triazol-3-yl)amino)pyridin-3-yl)naphtho[2,3-c]furan-1(3H)-one] | 2.79 | 17.9 | > 50 | 
COc1cc2cc3c(c(N4CCN(CCN5CCOCC5)CC4)c2cc1OC)C(=O)OC3 [Example 143, 6,7-dimethoxy-9-(4-(2-morpholinoethyl)piperazin-1-yl)naphtho[2,3-c]furan-1(3H)-one] | 1.0 | > 50 | > 50 | 
COc1cc2cc3c(c(-c4ccc(N(C)Cc5ccccc5C(F)(F)F)nc4)c2cc1OC)C(=O)OC3 [Example 208, 6,7-dimethoxy-9-(6-(methyl(2-(trifluoromethyl)benzyl)amino)pyridin-3-yl)naphtho[2,3-c]furan-1(3H)-one] | 18.96 | 2.64 | > 50 | 
COc1cc2cc3c(c(-c4cnc(NC5CCCC5)nc4)c2cc1OC)C(=O)OC3.Cl [Example 91, 9-(2-(cyclopentylamino)pyrimidin-5-yl)-6,7-dimethoxynaphtho[2,3-c]furan-1(3H)-one hydrochloride] | 5.15 |  | > 50 | 9.7
COc1cc2cc3c(c(-c4cnc(N)cn4)c2cc1OC)C(=O)OC3 [Example 30, 9-(5-aminopyrazin-2-yl)-6,7-dimethoxynaphtho[2,3-c]furan-1(3H)-one] | 1.00 | > 50 | > 50 | 
COc1ccc2c(-c3c4c(cc5cc(OC)c(OC)cc35)COC4=O)cc(C)nc2c1 [Example 141, 6,7-dimethoxy-9-(7-methoxy-2-methylquinolin-4-yl)naphtho[2,3-c]furan-1(3H)-one] | 2.07 | 24.2 | > 50 | 
CNc1ccc(-c2c3c(cc4cc(OC)c(OC)cc24)COC3=O)cc1 [Example 246, 6,7-dimethoxy-9-(4-(methylamino)phenyl)naphtho[2,3-c]furan-1(3H)-one] | 15.18 | 3.29 | > 50 | 
COc1cc2cc3c(c(-c4cnc(N5CCC[C@H]5CO)nc4)c2cc1OC)C(=O)OC3.Cl [Example 83, (S)-9-(2-(2-(hydroxymethyl)pyrrolidin-1-yl)pyrimidin-5-yl)-6,7-dimethoxynaphtho[2,3-c]furan-1(3H)-one hydrochloride] | 1.65 |  | > 50 | 30.3
COc1cc2c(OC)c3c(c(-c4ccc(N(C)c5cccc(C(F)(F)F)c5)nc4)c2cc1OC)COC3=O.Cl [Example 263, 6,7,9-trimethoxy-4-(6-(methyl(3-(trifluoromethyl)phenyl)amino)pyridin-3-yl)naphtho[2,3-c]furan-1(3H)-one] | 1.00 |  | > 50 | > 50
COCCOc1cncc(-c2c3c(cc4cc(OC)c(OC)cc24)COC3=O)c1 [Example 173, 6,7-dimethoxy-9-(5-(2-methoxyethoxy)pyridin-3-yl)naphtho[2,3-c]furan-1(3H)-one] | 1.0 | > 50 | > 50 | 
COc1cc2cc3c(c(-c4cnc(N5CCCC(C(=O)O)C5)nc4)c2cc1OC)C(=O)OC3 (stereo not drawn) [Example 60, 1-(5-(6,7-dimethoxy-3-oxo-1,3-dihydronaphtho[2,3-c]furan-4-yl)pyrimidin-2-yl) piperidin-3-carboxylic acid] | 1.00 | > 50 | > 50 | 
COc1cc2cc3c(c(-c4ccc5nccc(Cl)c5c4)c2cc1OC)C(=O)OC3 [Example 138, 9-(4-chloroquinolin-6-yl)-6,7-dimethoxynaphtho[2,3-c]furan-1(3H)-one] | 1.33 | 37.7 | > 50 | 
COc1cc2cc3c(c(-c4ccc(N(C)CC(C)C)nc4)c2cc1OC)C(=O)OC3 [Example 181, 9-(6-(isobutyl(methyl)amino)pyridin-3-yl)-6,7-dimethoxynaphtho[2,3-c]furan-1(3H)-one] | 53.67 | 0.93 | > 50 | 
COc1cc2cc3c(c(-c4ccc(N(C)Cc5cccnc5)cc4)c2cc1OC)C(=O)OC3 [Example 255, 6,7-dimethoxy-9-(4-(methyl(pyridin-3-ylmethyl)amino)phenyl)naphtho[2,3-c]furan-1(3H)-one] | 15.74 | 3.18 | > 50 | 
COc1cc2cc3c(c(-c4ccc(N5CCOCC5)cc4)c2cc1OC)C(=O)OC3.Cl [Example 245, 6,7-dimethoxy-9-(4-morpholinophenyl)naphtho[2,3-c]furan-1(3H)-one] | 1.00 |  | > 50 | > 50
COc1cc2cc3c(c(-c4cc5c(cc4OC(=O)C(C)C)OCO5)c2cc1OC)C(=O)OC3 [Example 275, 6-(6,7-dimethoxy-3-oxo-1,3-dihydronaphtho[2,3-c]furan-4-yl)benzo[d][1,3]dioxol-5-yl isobutrate] | 1.76 | 28.4 | > 50 | 
COc1cc2cc3c(c(-c4cnc(N(C)[C@H]5CCc6c(cccc6OC)C5)nc4)c2cc1OC)C(=O)OC3.Cl [Example 96, (S)-6,7-dimethoxy-9-(2-((5-methoxy-1,2,3,4-tetrahydronaphthalen-2-yl)(methyl)amino)pyrimidin-5-yl)naphtho[2,3-c]furan-1(3H)-one hydrochloride] | 27.11 |  | > 50 | 1.84
CCNc1ccc(-c2c3c(cc4cc(OC)c(OC)cc24)COC3=O)cc1 [Example 250, 9-(4-(ethylamino)phenyl)-6,7-dimethoxynaphtho[2,3-c]furan-1(3H)-one] | 10.40 | 4.81 | > 50 | 
